The results in this text go back to patent US8772480B2, “Inhibitors of PI3 kinase and/or mTOR” (priority 2009, dated 2014).

For one assay, the target named is PI3Kα (Homo sapiens (Human), UniProt P42336). The conditions noted are these: read-out: PI3Kα AlphaScreen ® Ki. (Bead proximity is the source of the signal in Alpha formats.)
Assay [1] deals with phosphorylation of Akt at Serine 473 in U87 MG cells. Put plainly: cells. The conditions noted are these: Homo sapiens, U-87 MG, 2 h, read-out: U87Cell IC50, pAkt (Ser 473), U87 MG cells, two hours with compound.

The term Ki denotes the equilibrium dissociation constant of an inhibitor or competing ligand from its target. In general, IC50 refers to the concentration needed to halve the response being measured.

PI3Kα, sequence (P42336 whole entry): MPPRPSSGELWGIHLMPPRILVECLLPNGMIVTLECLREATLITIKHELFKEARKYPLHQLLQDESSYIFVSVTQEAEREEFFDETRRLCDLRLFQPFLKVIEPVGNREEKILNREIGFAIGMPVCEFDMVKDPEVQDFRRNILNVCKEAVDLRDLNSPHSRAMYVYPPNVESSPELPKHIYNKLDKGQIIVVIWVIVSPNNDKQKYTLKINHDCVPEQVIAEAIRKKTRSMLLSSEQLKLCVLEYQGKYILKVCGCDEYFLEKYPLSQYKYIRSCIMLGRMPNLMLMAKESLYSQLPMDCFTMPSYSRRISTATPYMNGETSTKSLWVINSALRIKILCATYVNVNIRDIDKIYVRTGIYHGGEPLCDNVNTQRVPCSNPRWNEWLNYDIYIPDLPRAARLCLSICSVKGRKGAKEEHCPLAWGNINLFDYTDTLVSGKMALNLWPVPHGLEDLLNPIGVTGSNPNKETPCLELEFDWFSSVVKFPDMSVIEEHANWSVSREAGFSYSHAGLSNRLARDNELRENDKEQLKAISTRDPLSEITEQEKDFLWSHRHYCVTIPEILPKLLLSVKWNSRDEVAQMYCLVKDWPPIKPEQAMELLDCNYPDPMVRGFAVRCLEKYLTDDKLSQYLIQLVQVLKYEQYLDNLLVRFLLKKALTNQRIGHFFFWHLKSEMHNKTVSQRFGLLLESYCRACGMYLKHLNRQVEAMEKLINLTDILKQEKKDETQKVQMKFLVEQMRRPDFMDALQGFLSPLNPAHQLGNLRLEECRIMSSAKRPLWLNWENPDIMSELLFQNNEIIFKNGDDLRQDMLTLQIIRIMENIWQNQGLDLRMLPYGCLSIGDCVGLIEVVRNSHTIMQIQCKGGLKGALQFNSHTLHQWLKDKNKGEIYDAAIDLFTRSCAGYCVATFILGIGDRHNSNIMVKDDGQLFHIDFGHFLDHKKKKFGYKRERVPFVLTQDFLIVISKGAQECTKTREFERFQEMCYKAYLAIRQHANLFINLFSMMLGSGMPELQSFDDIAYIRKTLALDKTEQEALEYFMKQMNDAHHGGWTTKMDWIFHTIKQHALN
PI3Kα, sequence (P27986 whole entry partner): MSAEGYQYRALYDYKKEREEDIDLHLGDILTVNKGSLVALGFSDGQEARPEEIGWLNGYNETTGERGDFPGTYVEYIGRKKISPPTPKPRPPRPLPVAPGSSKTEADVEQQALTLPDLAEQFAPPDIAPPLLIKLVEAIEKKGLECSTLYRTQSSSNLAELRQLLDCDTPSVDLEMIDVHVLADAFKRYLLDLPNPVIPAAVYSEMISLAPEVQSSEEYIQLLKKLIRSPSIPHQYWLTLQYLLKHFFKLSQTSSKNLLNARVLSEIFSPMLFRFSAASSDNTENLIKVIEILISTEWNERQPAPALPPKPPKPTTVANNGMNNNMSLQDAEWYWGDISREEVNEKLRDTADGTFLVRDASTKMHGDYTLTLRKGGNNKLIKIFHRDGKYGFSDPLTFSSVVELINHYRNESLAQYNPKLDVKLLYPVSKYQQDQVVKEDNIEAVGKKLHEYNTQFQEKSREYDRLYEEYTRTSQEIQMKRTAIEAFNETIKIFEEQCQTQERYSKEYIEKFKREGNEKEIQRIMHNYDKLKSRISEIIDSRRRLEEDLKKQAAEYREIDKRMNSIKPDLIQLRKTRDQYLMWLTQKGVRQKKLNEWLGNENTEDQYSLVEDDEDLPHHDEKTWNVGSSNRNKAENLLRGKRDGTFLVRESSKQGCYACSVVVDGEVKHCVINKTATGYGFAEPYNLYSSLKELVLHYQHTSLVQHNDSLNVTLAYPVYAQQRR

On to `COc1ccc(Nc2ncc(C(C)N3CCN(S(C)(=O)=O)CC3)cc2-c2nc(C)nc3[nH]cnc23)cn1` (stereo not drawn) [Example 140, N-(6-methoxypyridin-3-yl)-3-(2-methyl-9H-purin-6-yl)-5-(1-(4-(methylsulfonyl)piperazin-1-yl)ethyl)pyridin-2-amine], for which, at PI3Kα, the Ki turned out to be 6 nM. For the same compound, the half-inhibitory concentration (IC50) in assay [1] was 34 nM.

As for `COc1ncc(Nc2ncc(Cc3ccc(S(C)(=O)=O)cc3)cc2-c2nc(C)nc(N)n2)cc1F` [Example 142, 4-(2-(5-fluoro-6-methoxypyridin-3-ylamino)-5-(4-(methylsulfonyl)benzyl)pyridin-3-yl)-6-methyl-1,3,5-triazin-2-amine], the Ki at PI3Kα was 2 nM. Further, in assay [1], the IC50 worked out at 6 nM.

On to `COc1ccc(Nc2ncc(C(C)N3CCN(S(C)(=O)=O)CC3)cc2-c2nc(C)nc(N)n2)cn1` (stereo not drawn) [Example 144, 4-(2-(6-Methoxypyridin-3-Ylamino)-5-(1-(4-(Methylsulfonyl)Piperazin-1-yl)Ethyl)Pyridin-3-yl)-6-Methyl-1,3,5-Triazin-2-Amine], for which the Ki on PI3Kα was 7 nM. In assay [1], the IC50 was 26 nM.

For `COc1ccc(Nc2ncc([C@H](C)N3CCN(S(C)(=O)=O)CC3)cc2-c2nc(C)nc(N)n2)cn1` [Example 145, (S)-4-(2-(6-Methoxypyridin-3-Ylamino)-5-(1-(4-(Methylsulfonyl)Piperazin-1-yl)Ethyl)Pyridin-3-yl)-6-Methyl-1,3,5-Triazin-2-Amine], the Ki at PI3Kα was found to be 8 nM. Moreover, the concentration for half-maximal inhibition (IC50) in assay [1] came out at 8 nM.

For `COc1ccc(Nc2ncc([C@@H](C)N3CCN(S(C)(=O)=O)CC3)cc2-c2nc(C)nc(N)n2)cn1` [Example 146, (R)-4-(2-(6-Methoxypyridin-3-Ylamino)-5-(1-(4-(Methylsulfonyl)Piperazin-1-yl)Ethyl)Pyridin-3-yl)-6-Methyl-1,3,5-Triazin-2-Amine], the Ki at PI3Kα turned out to be 6 nM. For the same compound, the IC50 in assay [1] turned out to be 7 nM.

`COc1ccc(Nc2ncc(C(C)c3ccc(S(C)(=O)=O)cc3)cc2-c2nc(C)nc(N)n2)cn1` (stereo not drawn) [Example 149, 4-(2-(6-Methoxypyridin-3-Ylamino)-5-(1-(4-(Methylsulfonyl)Phenyl)Ethyl)Pyridin-3-yl)-6-Methyl-1,3,5-Triazin-2-Amine]: the Ki on PI3Kα amounted to 5 nM. In addition, in assay [1], the IC50 was 53 nM.

On to `COc1ncc(Nc2ncc(C(C)c3ccc(S(C)(=O)=O)cc3)cc2-c2nc(C)nc(N)n2)cc1F` (stereo not drawn) [Example 150, 4-(2-(5-Fluoro-6-Methoxypyridin-3-Ylamino)-5-(1-(4-(Methylsulfonyl)Phenyl)Ethyl)Pyridin-3-yl)-6-Methyl-1,3,5-Triazin-2-Amine], for which, on PI3Kα, the Ki is 1 nM. Also, in assay [1], the IC50 was determined as 11 nM.

For the compound `COc1ccc(Nc2ncc(C(=O)N3CCOCC3)cc2-c2nc(C)nc(N)n2)cn1` [Example 151, 4-(2-((6-Methoxy-3-Pyridinyl)Amino)-5-(4-Morpholinylcarbonyl)-3-Pyridinyl)-6-Methyl-1,3,5-Triazin-2-Amine], the Ki on PI3Kα was found to be 64 nM. Also, in assay [1], the IC50 amounted to 143 nM.

As for `COCCNC(=O)c1cnc(Nc2ccc(OC)nc2)c(-c2nc(C)nc(N)n2)c1` [Example 153, 5-(4-Amino-6-Methyl-1,3,5-Triazin-2-yl)-N-(2-Methoxyethyl)-6-((6-Methoxy-3-Pyridinyl)Amino)-3-Pyridinecarboxamide], the inhibition constant (Ki) on PI3Kα worked out at 21 nM. In addition, the IC50 in assay [1] stood at 110 nM.

For the compound `COc1ccc(Nc2ncc(CN3CCOCC3=O)cc2-c2nc(C)nc(N)n2)cn1` [Example 154, 4-((5-(4-Amino-6-Methyl-1,3,5-Triazin-2-yl)-6-((6-Methoxy-3-Pyridinyl)Amino)-3-Pyridinyl)Methyl)-3-Morpholinone], at PI3Kα, the Ki is 33 nM. For the same compound, the IC50 in assay [1] worked out at 79 nM.

For `COc1ccc(Nc2ncc(CN3CCN(S(C)(=O)=O)C[C@H]3C)cc2-c2nc(C)nc(N)n2)cn1` [Example 158, (R)-4-(2-(6-Methoxypyridin-3-Ylamino)-5-((2-Methyl-4-(Methylsulfonyl)Piperazin-1-yl)Methyl)Pyridin-3-yl)-6-Methyl-1,3,5-Triazin-2-Amine], at PI3Kα, the Ki came out at 7 nM. For the same compound, the IC50 in assay [1] amounted to 16 nM.

With `COc1ncc(Nc2ncc(CN3CCN(C(=O)N(C)C)CC3)cc2-c2nc(C)nc(N)n2)cc1F` [Example 159, 4-((5-(4-Amino-6-Methyl-1,3,5-Triazin-2-yl)-6-(5-Fluoro-6-Methoxypyridin-3-Ylamino)Pyridin-3-yl)Methyl)-N,N-Dimethylpiperazine-1-Carboxamide], on PI3Kα, the Ki came to 11 nM. For the same compound, the IC50 in assay [1] is 11 nM.

`Cc1nc(N)nc(-c2cc(CN3CCN(C(=O)N(C)C)CC3)cnc2Nc2cnc(O)c(F)c2)n1` [Example 160, 4-((5-(4-Amino-6-Methyl-1,3,5-Triazin-2-yl)-6-(5-Fluoro-6-Hydroxypyridin-3-Ylamino)Pyridin-3-yl)Methyl)-N,N-Dimethylpiperazine-1-Carboxamide]: the Ki on PI3Kα came to 505 nM. Moreover, the concentration for half-maximal inhibition (IC50) in assay [1] is 3170 nM.

In the case of `Cc1nc(N)nc(-c2cc(CN3CCN(S(C)(=O)=O)CC3)cnc2Nc2cnc(O)c(F)c2)n1` [Example 161, 5-(3-(4-Amino-6-Methyl-1,3,5-Triazin-2-yl)-5-((4-(Methylsulfonyl)Piperazin-1-yl)Methyl)Pyridin-2-Ylamino)-3-Fluoropyridin-2-ol], on PI3Kα, the Ki was determined as 36 nM. In assay [1], the IC50 turned out to be 73 nM.

Turning to `CNc1nc(C)nc(-c2cc(CN3CCN(S(C)(=O)=O)CC3)cnc2Nc2ccc(OC)nc2)n1` [Example 163, 4-(2-(6-Methoxypyridin-3-Ylamino)-5-((4-(Methylsulfonyl)Piperazin-1-yl)Methyl)Pyridin-3-yl)-N,6-Dimethyl-1,3,5-Triazin-2-Amine], at PI3Kα, the Ki worked out at 7 nM. In addition, the IC50 in assay [1] was found to be 30 nM.

For the compound `Cc1nc(N)nc(-c2cccnc2Nc2cccc(OC(F)F)c2)n1` [Example 164, 4-(2-(3-(Difluoromethoxy)Phenylamino)Pyridin-3-yl)-6-Methyl-1,3,5-Triazin-2-Amine], the Ki at PI3Kα was determined as 963 nM. Also, in assay [1], the IC50 was above 10000 nM.

On to `COc1ccc(Nc2ncccc2-c2nc(C)nc(N)n2)cc1F` [Example 166, 4-(2-(3-Fluoro-4-Methoxyphenylamino)Pyridin-3-yl)-6-Methyl-1,3,5-Triazin-2-Amine], for which the Ki at PI3Kα came to 177 nM. For the same compound, the half-maximal inhibitory concentration (IC50) in assay [1] amounted to 902 nM.

As for `Cc1nc(N)nc(-c2cccnc2Nc2ccc3c(c2)OC(F)(F)O3)n1` [Example 168, 4-(2-(2,2-Difluorobenzo[D][1,3]Dioxol-5-Ylamino)Pyridin-3-yl)-6-Methyl-1,3,5-Triazin-2-Amine], the Ki at PI3Kα is 610 nM. For the same compound, the IC50 in assay [1] was above 10000 nM.

As to `COc1ccc(Nc2ncc(-c3ccc(OC)nc3)cc2-c2nc(C)nc(N)n2)cn1` [Example 169, 5-(4-Amino-6-Methyl-1,3,5-Triazin-2-yl)-6′-Methoxy-N-(6-Methoxypyridin-3-yl)-3,3′-Bipyridin-6-Amine], at PI3Kα, the Ki was found to be 17 nM. In assay [1], the IC50 was found to be 105 nM.

Turning to `COc1ccc(Nc2ncccc2-c2nc(C)nc(N)n2)cc1OC` [Example 170, 4-(2-(3,4-Dimethoxyphenylamino)Pyridin-3-yl)-6-Methyl-1,3,5-Triazin-2-Amine], the Ki at PI3Kα was 560 nM. In addition, the IC50 in assay [1] came to 596 nM.

Turning to `Cc1ccc2cc(Nc3ncccc3-c3nc(C)nc(N)n3)ccc2n1` [Example 171, N-(3-(4-Amino-6-Methyl-1,3,5-Triazin-2-yl)Pyridin-2-yl)-2-Methylquinolin-6-Amine], the inhibitory constant (Ki) at PI3Kα stood at 611 nM. Besides, the IC50 in assay [1] is above 10000 nM.

Take `COc1ccc(Nc2ncc(-c3ccccn3)cc2-c2nc(C)nc(N)n2)cn1` [Example 172, 5′-(4-Amino-6-Methyl-1,3,5-Triazin-2-yl)-N-(6-Methoxypyridin-3-yl)-2,3′-Bipyridin-6′-Amine]: the Ki at PI3Kα is 6 nM. For the same compound, the IC50 in assay [1] stood at 58 nM.

Regarding `COc1ncc(Nc2ncccc2-c2nc(C)nc(N)n2)cc1Cl` [Example 173, 4-(2-(5-Chloro-6-Methoxypyridin-3-Ylamino)Pyridin-3-yl)-6-Methyl-1,3,5-Triazin-2-Amine], on PI3Kα, the Ki was found to be 60 nM. The IC50 in assay [1] worked out at 353 nM.

For the compound `Cc1cncc(Nc2ncccc2-c2nc(C)nc(N)n2)c1` [Example 174, 4-Methyl-6-(2-(5-Methylpyridin-3-Ylamino)Pyridin-3-yl)-1,3,5-Triazin-2-Amine], on PI3Kα, the Ki is 455 nM. Besides, the half-maximal inhibitory concentration (IC50) in assay [1] was above 10000 nM.

As to `COc1ncc(Nc2nc(-c3ccncc3)ccc2-c2nc(C)nc(N)n2)cc1F` [Example 175, 5-(4-Amino-6-Methyl-1,3,5-Triazin-2-yl)-N-(5-Fluoro-6-Methoxypyridin-3-yl)-2,4′-Bipyridin-6-Amine], on PI3Kα, the Ki worked out at 63 nM. In assay [1], the 50% inhibitory concentration (IC50) is above 10000 nM.

For the compound `COc1ncc(Nc2ncc(C(=O)N3CCC(O)CC3)cc2-c2nc(C)nc(N)n2)cc1F` [Example 176, (5-(4-amino-6-methyl-1,3,5-triazin-2-yl)-6-(5-fluoro-6-methoxypyridin-3-ylamino)pyridin-3-yl)(4-hydroxypiperidin-1-yl)methanone], the Ki at PI3Kα was determined as 44 nM. Besides, in assay [1], the IC50 came out at 134 nM.

For the compound `COc1ccc(Nc2ncc(CN3CCN(S(C)(=O)=O)CC3)cc2-c2cc(N)nc(C)n2)cn1` [Example 178, 6-(2-(6-Methoxypyridin-3-Ylamino)-5-((4-(Methylsulfonyl)Piperazin-1-yl)Methyl)Pyridin-3-yl)-2-Methylpyrimidin-4-Amine], the Ki at PI3Kα worked out at 6 nM. In addition, the IC50 in assay [1] was determined as 50 nM.

For `Cc1nc(N)cc(-c2nc3ccccc3nc2Nc2cccc3[nH]ncc23)n1` [Example 180, 3-(6-Amino-2-Methylpyrimidin-4-yl)-N-(1H-Indazol-4-yl)Quinoxalin-2-Amine], the inhibition constant (Ki) on PI3Kα came to 124 nM. The IC50 in assay [1] amounted to 1570 nM.

`CC(=O)Nc1ccc(Nc2ncccc2-c2nc(C)nc3[nH]cnc23)cc1Cl` [Example 181, N-(2-Chloro-4-(3-(2-Methyl-9H-Purin-6-yl)Pyridin-2-Ylamino)Phenyl)Acetamide]: the Ki on PI3Kα worked out at 754 nM. Also, the IC50 in assay [1] came out at 562 nM.

As for `COc1cncc(Nc2ncccc2-c2nc(C)nc3[nH]cnc23)c1` [Example 183, N-(5-Methoxypyridin-3-yl)-3-(2-Methyl-9H-Purin-6-yl)Pyridin-2-Amine], the Ki at PI3Kα stood at 26 nM. Also, in assay [1], the half-maximal inhibitory concentration (IC50) is 446 nM.
